Source: patent publication US11524966B1 (Valo Early Discovery, Inc., priority 2017, dated 2022)
pIC50: −log10 of the molar value. Read-outs that look alike come from different tables or passages of the source.

Target: T1, USP25 (USP25-His6, Boston Biochem E-546) (Homo sapiens, UniProt Q9UHP3)
T1 construct: His6; purchased Boston Biochem E-546
T1 sequence (Q9UHP3 1-1055): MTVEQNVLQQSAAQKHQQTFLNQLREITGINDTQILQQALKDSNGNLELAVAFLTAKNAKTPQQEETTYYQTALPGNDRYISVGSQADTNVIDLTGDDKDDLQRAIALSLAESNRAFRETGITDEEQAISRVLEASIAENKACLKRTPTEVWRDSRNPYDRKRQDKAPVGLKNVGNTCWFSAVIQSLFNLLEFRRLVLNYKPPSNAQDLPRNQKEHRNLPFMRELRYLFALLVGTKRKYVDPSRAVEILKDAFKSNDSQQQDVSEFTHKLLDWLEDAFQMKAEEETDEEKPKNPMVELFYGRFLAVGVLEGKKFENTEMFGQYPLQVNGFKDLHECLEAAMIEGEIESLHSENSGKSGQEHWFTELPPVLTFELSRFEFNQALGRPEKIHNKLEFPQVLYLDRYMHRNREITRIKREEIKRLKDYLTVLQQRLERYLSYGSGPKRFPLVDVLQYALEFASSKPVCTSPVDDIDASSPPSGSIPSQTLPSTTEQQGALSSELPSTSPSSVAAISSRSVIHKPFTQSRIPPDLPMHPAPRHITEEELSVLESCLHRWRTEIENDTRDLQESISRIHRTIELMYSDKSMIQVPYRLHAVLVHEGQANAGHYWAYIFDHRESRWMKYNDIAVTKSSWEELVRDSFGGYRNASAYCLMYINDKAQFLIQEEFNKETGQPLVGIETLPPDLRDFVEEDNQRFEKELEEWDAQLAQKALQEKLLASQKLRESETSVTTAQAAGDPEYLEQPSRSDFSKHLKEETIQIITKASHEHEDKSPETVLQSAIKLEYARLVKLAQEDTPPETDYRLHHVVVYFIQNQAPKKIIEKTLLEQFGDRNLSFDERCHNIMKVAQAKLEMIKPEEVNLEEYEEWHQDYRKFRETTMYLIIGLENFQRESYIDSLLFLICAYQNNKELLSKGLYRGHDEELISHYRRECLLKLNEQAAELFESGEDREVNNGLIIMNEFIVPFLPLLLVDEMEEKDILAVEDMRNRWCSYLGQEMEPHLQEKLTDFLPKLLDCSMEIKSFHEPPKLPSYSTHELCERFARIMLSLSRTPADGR
Assay: Ubiquitin-Rhodamine 110 Assay for USP25 Activity, Example A-2
Type: biochemical
Settings: Example A-2, read-out: USP25 A-2 IC50 range
Description: The assay was performed in a final volume of 9 μL in assay buffer containing 20 mM Tris-HCl (pH 8.0, (1M Tris-HCl, pH 8.0 solution; Corning 46-031-CM)), 3 mM BME (2-Mercaptoethanol; Sigma 63689-25ML-F), 0.03% BGG (0.22 μM filtered, Sigma, G7516-25G), and 0.01% Triton X-100 (Sigma, T9284-10L). Nanoliter quantities of 10-point, 3-fold serial dilution in DMSO was pre-dispensed into 1536 assay plates (Corning, #3724BC) for a final test concentration of 25 μM to 1.3 nM, top to lowest dose, respectively. Enzyme USP25, construct USP25-His6, (Boston Biochem E-546). Concentration and incubation times were optimized for the maximal signal-to-background while maintaining initial velocity conditions at a fixed substrate concentration. The final concentration of the enzyme in the assay was 75 pM. Final substrate (Ub-Rh110; Ubiquitin-Rhodamine 110, R&D Systems #U-555) concentration was 25 nM with [Ub-Rh110]<<Km. 3 μL of 2× enzyme was added to assay plates (pre-stamped with compound) preincubated with […] for 30 minutes and then 3 μL of 2×Ub-Rh110 was added to assay plates. Plates were incubated for 45 minutes at room temperature before addition of 3 μL of stop solution (final concentration of 10 mM citric acid (Sigma, 251275-500G)). Fluorescence was read on the Envision (Excitation at 485 nm and Emission at 535 nm; Perkin Elmer) or on the PheraSTAR (Excitation at 485 nm and Emission at 535 nm; BMG Labtech).
IC50 values were determined by curve fitting of the standard 4 parameter logistic fitting algorithm included in the Activity Base software package: IDBS XE Designer Model 205. Data is fitted using the Levenburg Marquardt algorithm.

Compound	pIC50 (Ub-Rh110 assay)	pIC50 (Ubiquitin-Rhodamine 110 assay)
Cc1cc(C)c2c(N)c(C(=O)N[C@H]3COc4cc(N5CC6CNCC(C5)O6)ccc4C3)sc2n1 [Example 2-20, N-((3R)-7-(9-oxa-3,7-diazabicyclo[3.3.1]nonan-3-yl)chroman-3-yl)-3-amino-4,6-dimethylthieno[2,3-b]pyridine-2-carboxamide]	7.30 to 9.00	
Cc1cnc2c(N)c(C(=O)N[C@H]3CCc4cc(N5CCNCC5)c(C)cc4C3)sc2n1 (single isomer, unassigned) [Example 2-34]	< 5.70	
Cc1ccc2c(N)c(C(=O)N[C@@H]3COc4cc(N5CC6CCCC(C5)N6)ccc4C3)sc2n1 (single isomer, unassigned) [Example 1-6]	< 5.70	
Cc1ccc2c(N)c(C(=O)N[C@H]3COc4cc(N5CCNCC56COC6)ccc4C3)sc2n1 [Example 2-10]	6.70 to 7.30	
Cc1ccc2c(N)c(C(=O)N[C@H]3COc4cc(N5C6CCC5CNC6)ccc4C3)sc2n1 [Example 2-6, N-((3R)-7-(3,8-diazabicyclo[3.2.1]octan-8-yl)chroman-3-yl)-3-amino-6-methylthieno[2,3-b]pyridine-2-carboxamide]	6.70 to 7.30	
COc1nc2sc(C(=O)N[C@H]3COc4cc(N5CCNCC5)ccc4C3)c(N)c2cc1F [Example 2-16, (R)-3-amino-5-fluoro-6-methoxy-N-(7-(piperazin-1-yl)chroman-3-yl)thieno[2,3-b]pyridine-2-carboxamide]	5.70 to 6.70	
Cc1cnc2c(N)c(C(=O)N[C@@H]3CCc4c(ccc(N5CCNCC5)c4C)C3)sc2n1 (single isomer, unassigned) [Example 2-37]	5.70 to 6.70	
Cc1ccc2c(N)c(C(=O)N[C@H]3COc4cc(N5CC6CCC(C5)N6)ccc4C3)sc2n1 (single isomer, unassigned) [Example 1-3]	7.30 to 9.00	
Cc1nc2sc(C(=O)N[C@@H]3COc4cc(N5CCNCC5)cc(F)c4C3)c(N)c2s1 (single isomer, unassigned) [Example 1-38]	5.70 to 6.70	
Cc1ccc2c(N)c(C(=O)N[C@H]3COc4cc(N5CC6CNCC(C5)C6(F)F)ccc4C3)sc2n1 [Example 2-1, 3-Amino-N-((3R)-7-(9,9-difluoro-3,7-diazabicyclo[3.3.1]nonan-3-yl)chroman-3-yl)-6-methylthieno[2,3-b]pyridine-2-carboxamide]	7.30 to 9.00	
CCn1ccc2cc(C(=O)N[C@H]3COc4cc(N5CC6CCC(C5)N6)ccc4C3)cnc21 (single isomer, unassigned) [Example 1-28]	6.70 to 7.30	
Cc1cc(C)c2c(N)c(C(=O)N[C@H]3COc4cc(N5CC6CNCC(C5)C6(F)F)ccc4C3)sc2n1 [Example 2-19, 3-amino-N-((3R)-7-(9,9-difluoro-3,7-diazabicyclo[3.3.1]nonan-3-yl)chroman-3-yl)-4,6-dimethylthieno[2,3-b]pyridine-2-carboxamide]	7.30 to 9.00	
Cc1ccc2c(N)c(C(=O)N[C@H]3COc4c(ccc(N5CCNCC5)c4F)C3)sc2n1 [Example 1-33, (R)-3-amino-N-(8-fluoro-7-(piperazin-1-yl)chroman-3-yl)-6-methylthieno[2,3-b]pyridine-2-carboxamide]	6.70 to 7.30	
Cc1nc2sc(C(=O)N[C@H]3COc4cc(N5CC6CNCC(C5)C6(F)F)ccc4C3)c(N)c2s1 [Example 2-28, 6-amino-N-((3R)-7-(9,9-difluoro-3,7-diazabicyclo[3.3.1]nonan-3-yl)chroman-3-yl)-2-methylthieno[2,3-d]thiazole-5-carboxamide]	6.70 to 7.30	
Cc1ccc2c(N)c(C(=O)N[C@H]3COc4cc(N5CCNC[C@H]5C)ccc4C3)sc2n1 [Example 2-5, 3-amino-6-methyl-N-((R)-7-((R)-2-methylpiperazin-1-yl)chroman-3-yl)thieno[2,3-b]pyridine-2-carboxamide]	7.30 to 9.00	
Cc1cnc2c(N)c(C(=O)N[C@H]3CCc4c(ccc(N5CCNCC5)c4C)C3)sc2n1 (single isomer, unassigned) [Example 2-36]	< 5.70	
Cc1nc2sc(C(=O)N[C@H]3COc4cc(N5CC6CC(C5)N6)ccc4C3)c(N)c2cc1F [Example 2-15, N-((3R)-7-(3,6-diazabicyclo[3.1.1]heptan-3-yl)chroman-3-yl)-3-amino-5-fluoro-6-methylthieno[2,3-b]pyridine-2-carboxamide]	6.70 to 7.30	
Cc1cc(C(F)(F)F)c2c(N)c(C(=O)N[C@H]3COc4cc(N5CC6CNCC(C5)C6(F)F)ccc4C3)sc2n1 [Example 2-22, 3-amino-N-((3R)-7-(9,9-difluoro-3,7-diazabicyclo[3.3.1]nonan-3-yl)chroman-3-yl)-6-methyl-4-(trifluoromethyl)thieno[2,3-b]pyridine-2-carboxamide]	7.30 to 9.00	
Cc1ccc2c(N)c(C(=O)N[C@@H]3COc4cc(N5CC6CCC(C5)N6)cc(F)c4C3)sc2n1 (single isomer, unassigned) [Example 1-30]	< 5.70	
Cc1cc(C)c2c(N)c(C(=O)N[C@H]3COc4c(C#N)c(N5CCNCC5)cc(F)c4C3)sc2n1 [Example 2-31, (R)-3-amino-N-(8-cyano-5-fluoro-7-(piperazin-1-yl)chroman-3-yl)-4,6-dimethylthieno[2,3-b]pyridine-2-carboxamide]	5.70 to 6.70	
Cc1ccc2c(N)c(C(=O)N[C@H]3COc4cc(N5CC6CC(C5)N6)cc(F)c4C3)sc2n1 (single isomer, unassigned) [Example 1-42]	< 5.70	
Cc1cc(C)c2c(N)c(C(=O)N[C@H]3COc4cc(N5CCNCC5)ccc4C3)sc2n1 [Example 2-17, (R)-3-amino-4,6-dimethyl-N-(7-(piperazin-1-yl)chroman-3-yl)thieno[2,3-b]pyridine-2-carboxamide]	6.70 to 7.30	
CO[C@H]1CN(c2ccc3c(c2)OC[C@H](NC(=O)c2sc4nc(C)ccc4c2N)C3)C[C@@H]1N (single isomer, unassigned) [Example 3-1]	5.70 to 6.70	
Cc1nc2sc(C(=O)N[C@H]3COc4cc(N5CCNCC5)ccc4C3)c(N)c2s1 [Example 1-25, (R)-6-amino-2-methyl-N-(7-(piperazin-1-yl)chroman-3-yl)thieno[2,3-d]thiazole-5-carboxamide]	5.70 to 6.70	
CCn1ccc2cc(C(=O)N[C@H]3COc4cc(N5CC6CCCC(C5)N6)ccc4C3)nnc21 [Example 2-29, N-((3R)-7-(3,9-diazabicyclo[3.3.1]nonan-3-yl)chroman-3-yl)-7-ethyl-7H-pyrrolo[2,3-c]pyridazine-3-carboxamide]	5.70 to 6.70	
Cc1cnc2c(N)c(C(=O)N[C@H]3COc4cc(N5CC6CC(C5)N6)ccc4C3)sc2n1 [Example 2-11, N-((3R)-7-(3,6-diazabicyclo[3.1.1]heptan-3-yl)chroman-3-yl)-7-amino-3-methylthieno[2,3-b]pyrazine-6-carboxamide]	6.70 to 7.30	
Cc1cnc2c(N)c(C(=O)N[C@H]3CCc4nc(N5CCNCC5)ccc4C3)sc2n1 [Example 23-6, 7-amino-3-methyl-N-[(6S)-2-(piperazin-1-yl)-5,6,7,8-tetrahydroquinolin-6-yl]thieno[2,3-b]pyrazine-6-carboxamide]		5.70 to 6.70
Nc1c(C(=O)N[C@H]2COc3cc(N4CC5CCC(C4)N5)ccc3C2)sc2ncc(F)cc12 (single isomer, unassigned) [Example 1-17]	5.70 to 6.70	
